Measurements taken from ChEMBL document CHEMBL3797190, “Development of 3,5-Dinitrobenzylsulfanyl-1,3,4-oxadiazoles and Thiadiazoles as Selective Antitubercular Agents Active Against Replicating and Nonreplicating Mycobacterium tuberculosis” (J Med Chem, 2016).
≈ marks a conversion by molar mass, not a printed value.

How the values were obtained:
Format in all cases: functional
[1] = tested on: Mycobacterium kansasii; test: Antimycobacterial activity against Mycobacterium kansasii CNCTC My 6509/96 after 21 days by microdilution method; conditions: CNCTC My 6509/96, 504 h
[2] = tested on: Mycobacterium kansasii; test: Antimycobacterial activity against Mycobacterium kansasii CNCTC My 235/80 after 14 days by microdilution method; conditions: CNCTC My 235/80, 336 h
[3] = tested on: Mycobacterium avium; test: Antimycobacterial activity against Mycobacterium avium CNCTC My 330/88 after 14 days by microdilution method; conditions: CNCTC My 330/88, 336 h
[4] = tested on: Mycobacterium kansasii; test: Antimycobacterial activity against Mycobacterium kansasii CNCTC My 6509/96 after 14 days by microdilution method; conditions: CNCTC My 6509/96, 336 h
[5] = tested on: Mycobacterium avium; test: Antimycobacterial activity against Mycobacterium avium CNCTC My 330/88 after 21 days by microdilution method; conditions: CNCTC My 330/88, 504 h
[6] = tested on: Mycobacterium tuberculosis; test: Antimycobacterial activity against Mycobacterium tuberculosis CNCTC My 331/88 after 14 days by microdilution method; conditions: CNCTC My 331/88, 336 h
[7] = tested on: Mycobacterium tuberculosis; test: Antimycobacterial activity against Mycobacterium tuberculosis CNCTC My 331/88 after 21 days by microdilution method; conditions: CNCTC My 331/88, 504 h
[8] = tested on: Mycobacterium kansasii; test: Antimycobacterial activity against Mycobacterium kansasii CNCTC My 235/80 after 21 days by microdilution method; conditions: CNCTC My 235/80, 504 h
[9] = tested on: Mycobacterium kansasii; test: Antimycobacterial activity against Mycobacterium kansasii CNCTC My 235/80 after 7 days by microdilution method; conditions: CNCTC My 235/80, 168 h
[10] = tested on: Mycobacterium kansasii; test: Antimycobacterial activity against Mycobacterium kansasii CNCTC My 6509/96 after 7 days by microdilution method; conditions: CNCTC My 6509/96, 168 h

Row | SMILES | MIC99 [1] [µM] | MIC99 [2] [µM] | MIC99 [3] [µM] | MIC99 [4] [µM] | MIC99 [5] [µM] | MIC99 [6] [µM] | MIC99 [7] [µM] | MIC99 [8] [µM] | MIC99 [9] [µM] | MIC99 [10] [µM]
1 | Cc1ccc(-c2nnc(SCc3cc([N+](=O)[O-])cc([N+](=O)[O-])c3)s2)cc1 | 2 (≈ 0.777 µg/mL) | 0.5 (≈ 0.194 µg/mL) | > 125 | 1 (≈ 0.388 µg/mL) | > 125 | 0.125 (≈ 0.0486 µg/mL) | 0.125 (≈ 0.0486 µg/mL) | 1 (≈ 0.388 µg/mL) | 0.5 (≈ 0.194 µg/mL) | 0.5 (≈ 0.194 µg/mL)
2 | COc1cc(OC)cc(-c2nnc(SCc3cc([N+](=O)[O-])cc([N+](=O)[O-])c3)o2)c1 | 1 (≈ 0.418 µg/mL) | 0.25 (≈ 0.105 µg/mL) | 16 (≈ 6.69 µg/mL) | 0.5 (≈ 0.209 µg/mL) | 16 (≈ 6.69 µg/mL) | 0.125 (≈ 0.0523 µg/mL) | 0.125 (≈ 0.0523 µg/mL) | 0.5 (≈ 0.209 µg/mL) | 0.125 (≈ 0.0523 µg/mL) | 0.125 (≈ 0.0523 µg/mL)
3 | Cc1nnc(SCc2cc([N+](=O)[O-])cc([N+](=O)[O-])c2)o1 | 32 (≈ 9.48 µg/mL) | 8 (≈ 2.37 µg/mL) | 500 (≈ 148 µg/mL) | 16 (≈ 4.74 µg/mL) | 500 (≈ 148 µg/mL) | 4 (≈ 1.19 µg/mL) | 8 (≈ 2.37 µg/mL) | 16 (≈ 4.74 µg/mL) | 4 (≈ 1.19 µg/mL) | 16 (≈ 4.74 µg/mL)
4 | Cc1ccc(-c2nnc(SCc3cc([N+](=O)[O-])cc(C(F)(F)F)c3)o2)cc1 | > 32 | > 32 | > 500 | > 32 | > 500 | > 32 | > 32 | > 32 | > 32 | > 32
5 | Cc1cc(C)cc(-c2nnc(SCc3cc([N+](=O)[O-])cc([N+](=O)[O-])c3)s2)c1 | 0.5 (≈ 0.201 µg/mL) | 1 (≈ 0.402 µg/mL) | > 16 | 0.5 (≈ 0.201 µg/mL) | > 16 | 0.125 (≈ 0.0503 µg/mL) | 0.125 (≈ 0.0503 µg/mL) | 1 (≈ 0.402 µg/mL) | 0.25 (≈ 0.101 µg/mL) | 0.25 (≈ 0.101 µg/mL)
6 | Cc1nnc(SCc2cc([N+](=O)[O-])cc([N+](=O)[O-])c2)s1 | 16 (≈ 5 µg/mL) | 4 (≈ 1.25 µg/mL) | 125 (≈ 39 µg/mL) | 8 (≈ 2.5 µg/mL) | 125 (≈ 39 µg/mL) | 4 (≈ 1.25 µg/mL) | 4 (≈ 1.25 µg/mL) | 8 (≈ 2.5 µg/mL) | 4 (≈ 1.25 µg/mL) | 8 (≈ 2.5 µg/mL)
7 | O=[N+]([O-])c1ccc(CSc2nnc(-c3ccncc3)o2)c([N+](=O)[O-])c1 | 32 (≈ 11.5 µg/mL) | 32 (≈ 11.5 µg/mL) | 62 (≈ 22.3 µg/mL) | 32 (≈ 11.5 µg/mL) | 62 (≈ 22.3 µg/mL) | 8 (≈ 2.87 µg/mL) | 8 (≈ 2.87 µg/mL) | 32 (≈ 11.5 µg/mL) | 16 (≈ 5.75 µg/mL) | 32 (≈ 11.5 µg/mL)
8 | O=[N+]([O-])c1cc(CSc2nnc(C3CCCCC3)o2)cc([N+](=O)[O-])c1 | – | – | – | – | – | ≤ 0.03 | ≤ 0.03 | – | – | –
9 | O=[N+]([O-])c1ccc(CSc2nnc(-c3ccccc3)s2)c([N+](=O)[O-])c1 | 4 (≈ 1.5 µg/mL) | 4 (≈ 1.5 µg/mL) | 8 (≈ 3 µg/mL) | 2 (≈ 0.749 µg/mL) | 32 (≈ 12 µg/mL) | 8 (≈ 3 µg/mL) | 16 (≈ 5.99 µg/mL) | 4 (≈ 1.5 µg/mL) | 1 (≈ 0.374 µg/mL) | 1 (≈ 0.374 µg/mL)
10 | O=[N+]([O-])c1cc(CSc2nnc(-c3ccc(Cl)cc3)o2)cc(C(F)(F)F)c1 | > 32 | > 32 | > 500 | > 32 | > 500 | > 32 | > 32 | > 32 | > 32 | > 32
11 | Nc1cc(N)cc(CSc2nnc(-c3ccc([N+](=O)[O-])cc3)s2)c1 | 250 (≈ 89.9 µg/mL) | 250 (≈ 89.9 µg/mL) | 250 (≈ 89.9 µg/mL) | 250 (≈ 89.9 µg/mL) | 250 (≈ 89.9 µg/mL) | 250 (≈ 89.9 µg/mL) | 250 (≈ 89.9 µg/mL) | 250 (≈ 89.9 µg/mL) | 250 (≈ 89.9 µg/mL) | 250 (≈ 89.9 µg/mL)
12 | O=[N+]([O-])c1cc(CSc2nnc(-c3ccc(O)cc3)o2)cc([N+](=O)[O-])c1 | 16 (≈ 5.99 µg/mL) | 8 (≈ 2.99 µg/mL) | 62 (≈ 23.2 µg/mL) | 8 (≈ 2.99 µg/mL) | 62 (≈ 23.2 µg/mL) | 1 (≈ 0.374 µg/mL) | 1 (≈ 0.374 µg/mL) | 16 (≈ 5.99 µg/mL) | 4 (≈ 1.5 µg/mL) | 4 (≈ 1.5 µg/mL)
13 | Cc1cc(C)cc(-c2nnc(SCc3cc([N+](=O)[O-])cc([N+](=O)[O-])c3)o2)c1 | 2 (≈ 0.773 µg/mL) | 0.5 (≈ 0.193 µg/mL) | > 32 | 1 (≈ 0.386 µg/mL) | > 32 | 0.06 (≈ 0.0232 µg/mL) | 0.06 (≈ 0.0232 µg/mL) | 1 (≈ 0.386 µg/mL) | 0.25 (≈ 0.0966 µg/mL) | 0.5 (≈ 0.193 µg/mL)
14 | O=[N+]([O-])c1cc(CSc2nnc(-c3ccncc3)o2)cc([N+](=O)[O-])c1 | 4 (≈ 1.44 µg/mL) | 2 (≈ 0.719 µg/mL) | 62 (≈ 22.3 µg/mL) | 2 (≈ 0.719 µg/mL) | 62 (≈ 22.3 µg/mL) | 0.5 (≈ 0.18 µg/mL) | 0.5 (≈ 0.18 µg/mL) | 2 (≈ 0.719 µg/mL) | 1 (≈ 0.359 µg/mL) | 2 (≈ 0.719 µg/mL)
15 | O=[N+]([O-])c1ccc(CSc2nnc(-c3ccc([N+](=O)[O-])cc3)o2)cc1 | 62 (≈ 22.2 µg/mL) | 250 (≈ 89.6 µg/mL) | 250 (≈ 89.6 µg/mL) | 62 (≈ 22.2 µg/mL) | 250 (≈ 89.6 µg/mL) | 250 (≈ 89.6 µg/mL) | 250 (≈ 89.6 µg/mL) | 250 (≈ 89.6 µg/mL) | 250 (≈ 89.6 µg/mL) | 62 (≈ 22.2 µg/mL)
16 | O=[N+]([O-])c1cc(CSc2nnc(-c3ccccc3Cl)s2)cc([N+](=O)[O-])c1 | 1 (≈ 0.409 µg/mL) | 1 (≈ 0.409 µg/mL) | 16 (≈ 6.54 µg/mL) | 1 (≈ 0.409 µg/mL) | > 16 | 0.125 (≈ 0.0511 µg/mL) | 0.125 (≈ 0.0511 µg/mL) | 1 (≈ 0.409 µg/mL) | 0.5 (≈ 0.204 µg/mL) | 0.5 (≈ 0.204 µg/mL)
17 | O=[N+]([O-])c1cc(CSc2nnc(-c3ccc(Cl)cc3)s2)cc(C(F)(F)F)c1 | > 32 | > 32 | > 500 | > 32 | > 500 | > 32 | > 32 | > 32 | > 32 | > 32
18 | O=[N+]([O-])c1cc(CSc2nnc(-c3ccncc3)s2)cc([N+](=O)[O-])c1 | 1 (≈ 0.375 µg/mL) | 1 (≈ 0.375 µg/mL) | > 125 | 1 (≈ 0.375 µg/mL) | > 125 | 0.125 (≈ 0.0469 µg/mL) | 0.125 (≈ 0.0469 µg/mL) | 1 (≈ 0.375 µg/mL) | 0.5 (≈ 0.188 µg/mL) | 0.5 (≈ 0.188 µg/mL)
19 | Nc1cc(CSc2nnc(-c3ccc([N+](=O)[O-])cc3)s2)cc([N+](=O)[O-])c1 | 250 (≈ 97.4 µg/mL) | 250 (≈ 97.4 µg/mL) | 250 (≈ 97.4 µg/mL) | 250 (≈ 97.4 µg/mL) | 250 (≈ 97.4 µg/mL) | 125 (≈ 48.7 µg/mL) | 125 (≈ 48.7 µg/mL) | 250 (≈ 97.4 µg/mL) | 250 (≈ 97.4 µg/mL) | 250 (≈ 97.4 µg/mL)
20 | NNC(=O)c1ccncc1 [ISONIAZID] | 4 (≈ 0.549 µg/mL) | > 250 | > 250 | 4 (≈ 0.549 µg/mL) | > 250 | – | – | > 250 | > 250 | 4 (≈ 0.549 µg/mL)
21 | Cc1ccc(-c2nnc(SCc3cc([N+](=O)[O-])cc(C(F)(F)F)c3)s2)cc1 | > 32 | > 32 | > 500 | > 32 | > 500 | > 32 | > 32 | > 32 | > 32 | > 32
22 | O=[N+]([O-])c1cc(CSc2nnc(-c3ccccc3Cl)o2)cc([N+](=O)[O-])c1 | 1 (≈ 0.393 µg/mL) | 0.25 (≈ 0.0982 µg/mL) | 16 (≈ 6.28 µg/mL) | 0.5 (≈ 0.196 µg/mL) | 32 (≈ 12.6 µg/mL) | 0.125 (≈ 0.0491 µg/mL) | 0.125 (≈ 0.0491 µg/mL) | 0.5 (≈ 0.196 µg/mL) | 0.125 (≈ 0.0491 µg/mL) | 0.125 (≈ 0.0491 µg/mL)
23 | O=[N+]([O-])c1ccc(CSc2nnc(-c3ccc([N+](=O)[O-])cc3)s2)cc1 | 62 (≈ 23.2 µg/mL) | 250 (≈ 93.6 µg/mL) | 250 (≈ 93.6 µg/mL) | 62 (≈ 23.2 µg/mL) | 250 (≈ 93.6 µg/mL) | 62 (≈ 23.2 µg/mL) | 62 (≈ 23.2 µg/mL) | 250 (≈ 93.6 µg/mL) | 250 (≈ 93.6 µg/mL) | 62 (≈ 23.2 µg/mL)
24 | O=[N+]([O-])c1ccc(-c2nnc(SCc3cc([N+](=O)[O-])cc(C(F)(F)F)c3)s2)cc1 | > 32 | > 32 | > 500 | > 32 | > 500 | > 32 | > 32 | > 32 | > 32 | > 32
25 | O=[N+]([O-])c1ccc(-c2nnc(SCc3cc([N+](=O)[O-])cc(C(F)(F)F)c3)o2)cc1 | 32 (≈ 13.6 µg/mL) | 32 (≈ 13.6 µg/mL) | > 500 | 32 (≈ 13.6 µg/mL) | > 500 | 32 (≈ 13.6 µg/mL) | 32 (≈ 13.6 µg/mL) | 32 (≈ 13.6 µg/mL) | 16 (≈ 6.82 µg/mL) | 16 (≈ 6.82 µg/mL)
